Laboratory results: patent US12655116B2, “Substituted isophthalic acid diamides” (Bayer Aktiengesellschaft, priority 2020, dated 2026)

Legend:
[1] = system: ALOMY; experiment: Pre-emergence herbicidal action against ALOMY; type: in vivo, Alopecurus myosuroides; details: Alopecurus myosuroides, pre-emergence, 504 h; for pest or weed control at 320 g/ha: scored visually after 3 weeks, 100% = plants have died, 0% = like control plants; for pest or weed control at 80 g/ha: scored visually after 3 weeks vs untreated controls (100% = plants have died, 0% = like control plants)
Procedure, shortened: (§1)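 Pre-emergence soil-surface spray of formulated compound (WP or EC; 600 to 800 l/ha; 0.2% wetting agent) over seeds sown in sandy loam. After 3 weeks under greenhouse conditions, damage is estimated visually in percent against untreated plants.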

[2] = system: POLCO; experiment: Post-emergence herbicidal action against POLCO; type: in vivo, Polygonum convolvulus; details: Fallopia convolvulus, 504 h, dosage 80 g/ha
Procedure, shortened: (§2)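 Spray, one-leaf stage: WP or EC compound in water, 600–800 l/ha, 0.2% wetting agent. Plants held about 3 weeks in the greenhouse, then visually rated in percent of kill compared with untreated controls.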

[3] = system: AMARE; experiment: Pre-emergence herbicidal action against AMARE; type: in vivo, Amaranthus retroflexus; details: Amaranthus retroflexus, 504 h, 100% = plants have died, 0% = like control plants; for pest or weed control at 320 g/ha: scored visually after 3 weeks
Procedure, shortened: as §1

[4] = system: ALOMY; experiment: Post-emergence herbicidal action against ALOMY; type: in vivo, Alopecurus myosuroides; details: Alopecurus myosuroides, 504 h, visual assessment about 3 weeks after treatment vs untreated controls; for pest or weed control at 80 g/ha: dosage 80 g/ha; for pest or weed control at 20 g/ha: dosage 20 g/ha
Procedure, shortened: as §2

[5] = system: LOLRI; experiment: Post-emergence herbicidal action against LOLRI; type: in vivo, Lolium rigidum; details: Lolium rigidum, 504 h; for pest or weed control at 80 g/ha: dosage 80 g/ha; for pest or weed control at 20 g/ha: dosage 20 g/ha
Procedure, shortened: as §2

[6] = system: AVEFA; experiment: Pre-emergence herbicidal action against AVEFA; type: in vivo, Avena fatua; details: Avena fatua, 504 h, pre-emergence
Procedure, shortened: as §1

[7] = system: VIOTR; experiment: Post-emergence herbicidal action against VIOTR; type: in vivo, Viola tricolor; details: Viola tricolor, 504 h
Procedure, shortened: as §2

[8] = system: LOLRI; experiment: Pre-emergence herbicidal action against LOLRI; type: in vivo, Lolium rigidum; details: Lolium rigidum, 504 h
Procedure, shortened: as §1

[9] = system: AMARE; experiment: Post-emergence herbicidal action against AMARE; type: in vivo, Amaranthus retroflexus; details: Amaranthus retroflexus, 504 h, visual assessment about 3 weeks after treatment, 100% = plants have died, 0% = like control plants
Procedure, shortened: as §2

[10] = system: STEME; experiment: Post-emergence herbicidal action against STEME; type: in vivo, Stellaria media; details: Stellaria media, 504 h
Procedure, shortened: as §2

[11] = system: HORMU; experiment: Pre-emergence herbicidal action against HORMU; type: in vivo, Hordeum murinum; details: Hordeum murinum, 504 h, pre-emergence
Procedure, shortened: as §1

[12] = system: ECHCG; experiment: Post-emergence herbicidal action against ECHCG; type: in vivo, Echinochloa crus-galli; details: Echinochloa crus-galli, 504 h; for pest or weed control at 20 g/ha: dosage 20 g/ha; for pest or weed control at 80 g/ha: dosage 80 g/ha
Procedure, shortened: as §2

[13] = system: ABUTH; experiment: Pre-emergence herbicidal action against ABUTH; type: in vivo, Abutilon theophrasti; details: Abutilon theophrasti, 504 h; for pest or weed control at 80 g/ha: scored visually after 3 weeks vs untreated controls (100% = plants have died, 0% = like control plants); for pest or weed control at 320 g/ha: Dosage: 320 g/ha, scored visually after 3 weeks
Procedure, shortened: as §1

[14] = system: STEME; experiment: Pre-emergence herbicidal action against STEME; type: in vivo, Stellaria media; details: Stellaria media, 504 h; for pest or weed control at 80 g/ha: dosage 80 g/ha; for pest or weed control at 320 g/ha: dosage 320 g/ha
Procedure, shortened: as §1

[15] = system: MATIN; experiment: Post-emergence herbicidal action against MATIN; type: in vivo, Matricaria inodora; details: Tripleurospermum inodorum, 504 h; for pest or weed control at 20 g/ha: dosage 20 g/ha; for pest or weed control at 80 g/ha: dosage 80 g/ha
Procedure, shortened: as §2

[16] = system: VERPE; experiment: Pre-emergence herbicidal action against VERPE; type: in vivo, Veronica persica; details: Veronica persica, 504 h; for pest or weed control at 320 g/ha: dosage 320 g/ha; for pest or weed control at 80 g/ha: dosage 80 g/ha
Procedure, shortened: as §1

[17] = system: AVEFA; experiment: Post-emergence herbicidal action against AVEFA; type: in vivo, Avena fatua; details: Avena fatua, 504 h, visual assessment about 3 weeks after treatment, 100% = plants have died, 0% = like control plants
Procedure, shortened: as §2

[18] = system: SETVI; experiment: Pre-emergence herbicidal action against SETVI; type: in vivo, Setaria viridis; details: Setaria viridis, 504 h; for pest or weed control at 80 g/ha: dosage 80 g/ha; for pest or weed control at 320 g/ha: dosage 320 g/ha
Procedure, shortened: as §1

[19] = system: MATIN; experiment: Pre-emergence herbicidal action against MATIN; type: in vivo, Matricaria inodora; details: Tripleurospermum inodorum, 504 h; for pest or weed control at 80 g/ha: dosage 80 g/ha; for pest or weed control at 320 g/ha: dosage 320 g/ha
Procedure, shortened: as §1

[20] = system: HORMU; experiment: Post-emergence herbicidal action against HORMU; type: in vivo, Hordeum murinum; details: Hordeum murinum, 504 h; for pest or weed control at 20 g/ha: dosage 20 g/ha; for pest or weed control at 80 g/ha: dosage 80 g/ha
Procedure, shortened: as §2

[21] = system: ECHCG; experiment: Pre-emergence herbicidal action against ECHCG; type: in vivo, Echinochloa crus-galli; details: Echinochloa crus-galli, 504 h
Procedure, shortened: as §1

[22] = system: SETVI; experiment: Post-emergence herbicidal action against SETVI; type: in vivo, Setaria viridis; details: Setaria viridis, 504 h
Procedure, shortened: as §2

[23] = system: PHBPU; experiment: Post-emergence herbicidal action against PHBPU; type: in vivo, Pharbitis purpurea; details: Ipomoea purpurea, 504 h, dosage 20 g/ha
Procedure, shortened: as §2

[24] = scored visually after 3 weeks vs untreated controls
[25] = scored visually after 3 weeks, 100% = plants have died, 0% = like control plants
[26] = 100% = plants have died, 0% = like control plants

CCNC(=O)c1c(C(F)(F)F)ccc(C(=O)Nc2nnnn2CC)c1SC [Example 2-82]
pest or weed control at 320 g/ha [1]: 100%
pest or weed control at 80 g/ha [2]: 80%
pest or weed control at 80 g/ha [3, 24]: 100%
pest or weed control at 320 g/ha [3]: 100%
pest or weed control at 80 g/ha [4]: 90%
pest or weed control at 80 g/ha [5]: 90%
pest or weed control at 80 g/ha [6]: 100%
pest or weed control at 320 g/ha [6, 25]: 100%
pest or weed control at 20 g/ha [7]: 80%
pest or weed control at 80 g/ha [7]: 80%
pest or weed control at 320 g/ha [8]: 90%
pest or weed control at 20 g/ha [9]: 90%
pest or weed control at 80 g/ha [9]: 90%
pest or weed control at 20 g/ha [10]: 80%
pest or weed control at 80 g/ha [10]: 90%
pest or weed control at 80 g/ha [11]: 80%
pest or weed control at 320 g/ha [11]: 100%
pest or weed control at 20 g/ha [12]: 80%
pest or weed control at 80 g/ha [12]: 80%
pest or weed control at 80 g/ha [13]: 100%
pest or weed control at 320 g/ha [13, 26]: 100%
pest or weed control at 80 g/ha [14]: 100%
pest or weed control at 320 g/ha [14]: 100%
pest or weed control at 20 g/ha [15]: 90%
pest or weed control at 80 g/ha [15]: 90%
pest or weed control at 320 g/ha [16]: 90%
pest or weed control at 20 g/ha [17]: 90%
pest or weed control at 80 g/ha [17]: 90%
pest or weed control at 80 g/ha [18]: 100%
pest or weed control at 320 g/ha [18]: 100%
pest or weed control at 80 g/ha [19]: 100%
pest or weed control at 320 g/ha [19]: 100%
pest or weed control at 20 g/ha [20]: 80%
pest or weed control at 80 g/ha [20]: 90%
pest or weed control at 80 g/ha [21]: 100%
pest or weed control at 320 g/ha [21]: 100%

CCNC(=O)c1c(C(F)F)ccc(C(=O)Nc2nnnn2C)c1Cl [Example 1-148]
pest or weed control at 80 g/ha [1]: 90%
pest or weed control at 320 g/ha [1]: 100%
pest or weed control at 80 g/ha [2]: 80%
pest or weed control at 80 g/ha [3, 24]: 100%
pest or weed control at 320 g/ha [3]: 100%
pest or weed control at 20 g/ha [4]: 80%
pest or weed control at 80 g/ha [4]: 90%
pest or weed control at 20 g/ha [5]: 80%
pest or weed control at 80 g/ha [5]: 90%
pest or weed control at 80 g/ha [6]: 100%
pest or weed control at 320 g/ha [6, 25]: 100%
pest or weed control at 20 g/ha [7]: 80%
pest or weed control at 80 g/ha [7]: 90%
pest or weed control at 320 g/ha [8]: 90%
pest or weed control at 20 g/ha [9]: 90%
pest or weed control at 80 g/ha [9]: 90%
pest or weed control at 20 g/ha [10]: 90%
pest or weed control at 80 g/ha [10]: 90%
pest or weed control at 80 g/ha [11]: 90%
pest or weed control at 320 g/ha [11]: 100%
pest or weed control at 20 g/ha [12]: 80%
pest or weed control at 80 g/ha [12]: 80%
pest or weed control at 80 g/ha [13]: 100%
pest or weed control at 320 g/ha [13, 26]: 100%
pest or weed control at 80 g/ha [14]: 100%
pest or weed control at 320 g/ha [14]: 100%
pest or weed control at 20 g/ha [15]: 100%
pest or weed control at 80 g/ha [15]: 100%
pest or weed control at 80 g/ha [16]: 80%
pest or weed control at 320 g/ha [16]: 100%
pest or weed control at 20 g/ha [17]: 100%
pest or weed control at 80 g/ha [17]: 100%
pest or weed control at 80 g/ha [18]: 100%
pest or weed control at 320 g/ha [18]: 100%
pest or weed control at 80 g/ha [19]: 100%
pest or weed control at 320 g/ha [19]: 100%
pest or weed control at 80 g/ha [20]: 90%
pest or weed control at 80 g/ha [21]: 100%
pest or weed control at 320 g/ha [21]: 100%

CCn1nnnc1NC(=O)c1ccc(C(F)(F)F)c(C(=O)NC2CC2)c1C [Example 2-27]
pest or weed control at 80 g/ha [1]: 100%
pest or weed control at 20 g/ha ([3]; 20 g/ha, scored visually after 3 weeks vs untreated controls): 100%
pest or weed control at 80 g/ha [3, 24]: 100%
pest or weed control at 5 g/ha ([4]; dosage 5 g/ha): 80%
pest or weed control at 20 g/ha [4]: 90%
pest or weed control at 20 g/ha [5]: 80%
pest or weed control at 80 g/ha [6]: 100%
pest or weed control at 20 g/ha ([6]; 20 g/ha, scored visually after 3 weeks, 100% = plants have died, 0% = like control plants): 80%
pest or weed control at 5 g/ha ([7]; 5 g/ha): 100%
pest or weed control at 20 g/ha [7]: 100%
pest or weed control at 80 g/ha ([8]; 80 g/ha): 80%
pest or weed control at 20 g/ha [9]: 100%
pest or weed control at 20 g/ha [10]: 100%
pest or weed control at 5 g/ha ([10]; dosage 5 g/ha): 100%
pest or weed control at 5 g/ha ([22]; dosage 5 g/ha): 80%
pest or weed control at 20 g/ha ([22]; dosage 20 g/ha): 100%
pest or weed control at 80 g/ha [11]: 90%
pest or weed control at 5 g/ha ([12]; dosage 5 g/ha): 80%
pest or weed control at 20 g/ha [12]: 100%
pest or weed control at 80 g/ha [13]: 100%
pest or weed control at 20 g/ha ([13]; dosage 20 g/ha, scored visually after 3 weeks vs untreated controls, 100% = plants have died, 0% = like control plants, read-out: Pre-emergence action against ABUTH (herbicidal activity in percent)): 100%
pest or weed control at 20 g/ha ([14]; dosage 20 g/ha): 100%
pest or weed control at 80 g/ha [14]: 100%
pest or weed control at 5 g/ha ([15]; dosage 5 g/ha): 100%
pest or weed control at 20 g/ha [15]: 100%
pest or weed control at 20 g/ha ([16]; dosage 20 g/ha): 80%
pest or weed control at 80 g/ha [16]: 100%
pest or weed control at 20 g/ha [23]: 90%
pest or weed control at 5 g/ha ([17]; 5 g/ha): 90%
pest or weed control at 20 g/ha [17]: 100%
pest or weed control at 80 g/ha [18]: 100%
pest or weed control at 20 g/ha ([19]; dosage 20 g/ha): 100%
pest or weed control at 80 g/ha [19]: 100%
pest or weed control at 20 g/ha [20]: 90%
pest or weed control at 20 g/ha ([21]; 20 g/ha): 90%
pest or weed control at 80 g/ha [21]: 100%
